From patent US12390532B2, “ALK protein regulator and anti-tumor application thereof” (SHANGHAITECH UNIVERSITY, priority 2019, dated 2025) come the findings set out here.

Like-named read-outs stand apart in the source and are kept apart here.

One experiment deals with T1, ALK protein (Homo sapiens, UniProt Q9UM73).
T1 construct: We studied the total ALK protein in the anaplastic large cell lymphoma cell line SR; host or cells: SR cells (human anaplastic large cell lymphoma); the other entry of the earlier key: NPM1 (P06748, Nucleophosmin)
Description: Western blot of ALK protein degradation in SR cells. In kind it is cell-based. The protocol: The ALK gene rearrangement positive cell line used was SR cells (NPM-ALK, human anaplastic large cell lymphoma cells). MDA-MB231 was a triple-negative breast cancer cell. Both SR cells and MDA-MB231 cells were purchased from ATCC. The 293T cells overexpressing EML4-ALK G1202R were the cells constructed and verified for correct expression by this laboratory.
Tumor cells were seeded in a 24-well plate containing 1 ml of RPMI1640 medium at 1.5-3×10^5 cells/well. The next day, the cells were treated with different concentrations of drugs. After 16 hours, the supernatant was removed and the cells were washed with PBS. The cells were placed on ice and the cells were treated with RIPA protein lysate containing Halt protease and phosphatase inhibitors. The lysate was centrifuged at 10000RPM at 4° C. for 10 minutes, and the supernatant was collected. The same amount of protein was added to the 4×SDS sample solution, denatured at 95° C. for 5 minutes and freezen to −20° C., or protein electrophoresis was directly performed. GenScript, a 4-20% gradient protein precast gel was used as the electrophoresis gel. The electrophoresis tank and related components were purchased from Bio-rad, and the electrophoresis conditions were equal pressure 120 v for 2 hours. PVDF membrane was used for the transfer membrane, and the transfer membrane system was placed on ice with an equal current of 400 mA for one hour. After transferring the membrane, it was sealed with TBST+5% milk powder for half an hour. For the specific steps of immunoblotting, refer to the antibody instructions of Cell Signaling Technology.
DC50 (the drug concentration corresponding to protein degradation to 50%) calculation: according to the gray value of the Western blotting band after the drug is processed, the relationship curve between the drug concentration and the gray value is fitted by Prism GraphPad software to calculate the drug concentration range corresponding half of the gray value.
The cells with different concentrations (0, 10, 50, 100, 500 nM) of Brigatinib were first treated in SR cells for 16 hours. Western blotting was used on cell lysate to detect the effect of Brigatinib on the content of ALK protein (FIG. 2).
(In general: In western blotting, separated proteins are transferred to a membrane and probed.)

Experiment [1] concerns SR cells (NPM-ALK, human anaplastic large cell lymphoma cells). Description: Proliferation inhibition (IC50) in SR cells, CCK8 (WST) reagent. The conditions noted are these: 72 h. In kind it is cell-based. The protocol: The ALK gene rearrangement positive cell line used was SR cells (NPM-ALK, human anaplastic large cell lymphoma cells). MDA-MB231 was a triple-negative breast cancer cell. Both SR cells and MDA-MB231 cells were purchased from ATCC.
The tumor cell line used was daily cultured in a 37° C. incubator containing 5% CO2. The medium was RPMI1640 supplemented with 10% FCS and Penicillin-Streptomycin.
The IC50 of the compound of the present disclosure was determined using Promega's Cell Titer Blue, Cell Titer GLO or commercially available WST reagents. The specific steps were as follows: the cells were seeded in a 96-well plate containing 100 microliters of RPMI medium containing serum at a number of 2000 cells/well. On the second day, the original drug and the compound of the present disclosure were serially diluted and added to the cells. After 72 hours of treatment with the compound of the present disclosure, the cell activity detection reagent was added to the culture medium for cell activity determination according to the instructions. The negative control was DMSO, and the positive control was the original drug, and the cells were treated in the same manner as the compound of the present disclosure. The growth inhibition of the compounds of the present disclosure on cells was plotted by Prism Graphpad software and the IC50 of the compounds of the present disclosure was counted from it.
We conducted dose-dependent experiments on the designed and synthesized compounds of the present disclosure in SR cells. […] The cells were treated with different concentrations of compounds (starting at 10 μM, 3 times dilution factor, 10 concentrations). After 72 hours, the cells were detected using CCK8 reagent (WST).

Where [2] appears, read: SR cells, WST reagent, 72 hours, read-out: IC50 (half inhibitory concentration), Brigatinib series in lymphoma cell lines.

T1 sequence (Q9UM73 with tags, fused parts or gaps): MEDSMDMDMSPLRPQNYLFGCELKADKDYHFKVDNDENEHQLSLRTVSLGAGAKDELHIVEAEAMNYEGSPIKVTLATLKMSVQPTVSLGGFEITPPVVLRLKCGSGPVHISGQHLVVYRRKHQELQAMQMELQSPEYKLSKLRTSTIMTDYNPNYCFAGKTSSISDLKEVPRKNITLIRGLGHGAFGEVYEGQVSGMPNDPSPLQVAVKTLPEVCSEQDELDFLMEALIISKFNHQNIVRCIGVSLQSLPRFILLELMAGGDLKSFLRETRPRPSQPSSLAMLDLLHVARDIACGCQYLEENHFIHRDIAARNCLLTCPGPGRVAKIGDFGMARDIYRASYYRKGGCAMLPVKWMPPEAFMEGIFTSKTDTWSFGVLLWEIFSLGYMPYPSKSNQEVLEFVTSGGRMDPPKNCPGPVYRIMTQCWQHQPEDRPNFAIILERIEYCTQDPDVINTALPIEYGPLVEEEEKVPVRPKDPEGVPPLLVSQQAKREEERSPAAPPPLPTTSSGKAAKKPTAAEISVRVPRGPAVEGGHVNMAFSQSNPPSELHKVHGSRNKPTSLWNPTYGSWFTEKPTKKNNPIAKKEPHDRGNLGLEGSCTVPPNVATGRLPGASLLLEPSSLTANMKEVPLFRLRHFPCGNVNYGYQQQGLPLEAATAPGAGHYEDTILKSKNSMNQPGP

In the case of `COc1cc(N2CCC(N3CCNCC3)CC2)ccc1Nc1ncc(Cl)c(Nc2ccccc2P(C)(C)=O)n1` [Brigatinib derivative C (SIAIS164005), (2-((5-Chloro-2-((2-methoxy-4-(4-(piperazin-1-yl)piperidin-1-yl)phenyl)amino)pyrimidin-4-yl)amino)phenyl) dimethyl phosphine oxide, reference compound], on ALK protein (16 hours, concentrations up to 500 nM), the “degradation effect on ALK protein” value was “no degradation effect”. Moreover, the IC50 in experiment [1] (setting [2]) came to 11.1 nM. Regarding `COc1cc(N2CCC(N3CCN(CCCCC#Cc4cccc5c4CN(C4CCC(=O)NC4=O)C5=O)CC3)CC2)ccc1Nc1ncc(Cl)c(Nc2ccccc2P(C)(C)=O)n1` (stereo not drawn) [SIAIS262040, 3-(4-(6-(4-(1-(4-((5-chloro-4-((2-(dimethylphosphono)phenyl)amino)pyrimidin-2-yl)amino)-3-methoxyphenyl)piperidin-4-yl)piperazin-1-yl)hex-1-yn-1-yl)-1-oxoisoindolin-2-yl)piperidine-2,6-dione], the DC50 at ALK protein (16 hours, concentration range at half of the gray value, read-out: DC50 (half degradation concentration), Brigatinib series in lymphoma cell lines) is 0.05 to 0.5 nM. For the same compound, the IC50 in experiment [1] (setting [2]) was determined as 1.1 nM. `CCc1cc2c(cc1N1CCC(N3CCN(C(=O)CNc4cccc5c4CN(C4CCC(=O)NC4=O)C5=O)CC3)CC1)C(C)(C)c1[nH]c3cc(C#N)ccc3c1C2=O` (stereo not drawn) [SIAIS262091, 8-(4-(4-{(2-(2,6-dioxopiperidin-3-yl)-1-oxoisoindolin-4-yl)aminoacetyl)piperazin-1-yl)piperidin-1-yl)-9-ethyl-6,6-dimethyl-11-oxo-6,11-dihydro-5H-benzo[b]carbazole-3-carbonitrile]: on ALK protein, the “concentration from which a degradation effect on ALK protein is shown” value is “less than 0.005 nM”. For the same compound, at ALK protein (read-out: DC50 (half degradation concentration), Alectinib series in lymphoma cell lines, 16 hours, concentration range at half of the gray value), the DC50 was in the range of 0.05 to 0.5 nM. The IC50 in experiment [1] (read-out: IC50 (half inhibitory concentration), Alectinib series in lymphoma cell lines, SR cells, WST reagent, 72 hours) is ~0.34 nM.

In the case of `COc1cc(N2CCC(N3CCN(C(=O)COCCOCCNc4cccc5c4CN(C4CCC(=O)NC4=O)C5=O)CC3)CC2)ccc1Nc1ncc(Cl)c(Nc2ccccc2P(C)(C)=O)n1` (stereo not drawn) [SIAIS352054, 3-(4-((2-(2-(2-(4-(1-(4-((5-chloro-4-((2-(dimethylphosphono)phenyl)amino)pyrimidine-2-yl)amino)-3-methoxyphenyl)piperidin-4-yl)piperazin-1-yl)-2-oxoethoxy)ethoxy)ethyl)amino)-1-oxoisoindolin-2-yl)piperidine-2,6-dione], in experiment [1] (setting [2]), the IC50 came to 22 ± 10.9 nM.

Take `COc1cc(N2CCC(N3CCN(C(=O)COCCOCCOCCNc4cccc5c4CN(C4CCC(=O)NC4=O)C5=O)CC3)CC2)ccc1Nc1ncc(Cl)c(Nc2ccccc2P(C)(C)=O)n1` (stereo not drawn) [SIAIS352055, 3-(4-((2-(2-(2-(2-(4-(1-(4-((5-chloro-4-((2-(dimethylphosphono)phenyl)amino)pyrimidin-2-yl)amino)-3-methoxyphenyl)piperidin-4-yl)piperazin-1-yl)-2-oxoethoxy)ethoxy)ethoxy)ethyl)amino)-1-oxoisoindolin-2-yl)piperidine-2,6-dione]: the IC50 in experiment [1] (setting [2]) was found to be 15 ± 4.4 nM. The same measure, in the same setting: as for `COc1cc(N2CCC(N3CCN(C(=O)COCCOCCOCCOCCNc4cccc5c4CN(C4CCC(=O)NC4=O)C5=O)CC3)CC2)ccc1Nc1ncc(Cl)c(Nc2ccccc2P(C)(C)=O)n1` (stereo not drawn) [SIAIS352056, 3-(4-((14-(4-(1-(4-((5-chloro-4-((2-(dimethylphosphono)phenyl)amino)pyrimidin-2-yl)amino)-3-methoxyphenyl)piperidin-4-yl)piperazin-1-yl)-14-oxo-3,6,9,12-tetraoxatetradecyl)amino)-1-oxoisoindolin-2-yl)piperidine-2,6-dione], the figure is 84.5 ± 17.3 nM. On the same count and under the same terms, the result for `COc1cc(N2CCC(N3CCN(C(=O)COCCOCCOCCOCCOCCNc4cccc5c4CN(C4CCC(=O)NC4=O)C5=O)CC3)CC2)ccc1Nc1ncc(Cl)c(Nc2ccccc2P(C)(C)=O)n1` (stereo not drawn) [SIAIS352057, 3-(4-((17-(4-(1-(4-((5-chloro-4-((2-(dimethylphosphono)phenyl)amino)pyrimidin-2-yl)amino)-3-methoxyphenyl)piperidin-4-yl)piperazin-1-yl)-17-oxo-3,6,9,12,15-pentaoxaheptadecyl)amino)-1-oxoisoindolin-2-yl)piperidine-2,6-dione] reads 102 ± 43.9 nM; that for `COc1cc(N2CCC(N(C)C(=O)CSc3cccc4c3CN(C3CCC(=O)NC3=O)C4=O)CC2)ccc1Nc1ncc(Cl)c(Nc2ccccc2P(C)(C)=O)n1` (stereo not drawn) [SIAIS353007, N-(1-(4-((5-chloro-4-((2-(dimethylphosphono)phenyl)amino)pyrimidin-2-yl)amino)-3-methoxyphenyl)piperidin-4-yl)-2-((2-(2,6-dioxopiperidin-3-yl)-1-oxoisoindolin-4-yl)thio)-N-methyl acetamide], 17.1 ± 10.9 nM. With `COc1cc(N2CCC(N(C)C(=O)CCCCCSc3cccc4c3CN(C3CCC(=O)NC3=O)C4=O)CC2)ccc1Nc1ncc(Cl)c(Nc2ccccc2P(C)(C)=O)n1` (stereo not drawn) [SIAIS353009, N-(1-(4-((5-chloro-4-((2-(dimethylphosphono)phenyl)amino)pyrimidin-2-yl)amino)-3-methoxyphenyl)piperidin-4-yl)-6-((2-(2,6-dioxopiperidin-3-yl)-1-oxoisoindolin-4-yl)thio)-N-methyl hexanamide], the IC50 in experiment [1] (setting [2]) stood at 10.5 ± 5.6 nM. As for `COc1cc(N2CCC(N(C)CCCCCCSc3cccc4c3CN(C3CCC(=O)NC3=O)C4=O)CC2)ccc1Nc1ncc(Cl)c(Nc2ccccc2P(C)(C)=O)n1` (stereo not drawn) [SIAIS353041, 3-(4-((6-((1-(4-((5-chloro-4-((2-(dimethylphosphono)phenyl)amino)pyrimidin-2-yl)amino)-3-methoxyphenyl)piperidin-4-yl)(methyl)amino)hexyl)thio)-1-oxoisoindolin-2-yl)piperidine-2,6-dione], in experiment [1] (setting [2]), the IC50 amounted to 0.5 ± 0.2 nM. On the same count and under the same terms, as for `COc1cc(N2CCC(N(C)CCCCSc3cccc4c3CN(C3CCC(=O)NC3=O)C4=O)CC2)ccc1Nc1ncc(Cl)c(Nc2ccccc2P(C)(C)=O)n1` (stereo not drawn) [SIAIS353043, 3-(4-((4-((1-(4-((5-chloro-4-((2-(dimethylphosphono)phenyl)amino)pyrimidin-2-yl)amino)-3-methoxyphenyl)piperidin-4-yl) (methyl)amino)butyl)thio)-1-oxoisoindolin-2-yl)piperidine-2,6-dione], the figure is 0.9 ± 0.2 nM; as for `COc1cc(N2CCC(N(C)CCCCCSc3cccc4c3CN(C3CCC(=O)NC3=O)C4=O)CC2)ccc1Nc1ncc(Cl)c(Nc2ccccc2P(C)(C)=O)n1` (stereo not drawn) [SIAIS353044, 3-(4-((5-((1-(4-((5-chloro-4-((2-(dimethylphosphono)phenyl)amino)pyrimidin-2-yl)amino)-3-methoxyphenyl)piperidin-4-yl)(methyl)amino)pentyl)thio)-1-oxoisoindolin-2-yl)piperidine-2,6-dione], 1.1 ± 0.2 nM; as for `COc1cc(N2CCC(N(C)CCCC#Cc3cccc4c3CN(C3CCC(=O)NC3=O)C4=O)CC2)ccc1Nc1ncc(Cl)c(Nc2ccccc2P(C)(C)=O)n1` (stereo not drawn) [SIAIS353050, 3-(4-(5-((1-(4-((5-chloro-4-((2-(dimethylphosphono)phenyl)amino)pyrimidin-2-yl)amino)-3-methoxyphenyl)piperidin-4-yl)(methyl)amino)pent-1-yn-1-yl)-1-oxoisoindolin-2-yl)piperidine-2,6-dione], 4.8 ± 0.1 nM. On the same count and under the same terms, the result for `COc1cc(N2CCC(N3CCN(C(=O)NCCCCSc4cccc5c4CN(C4CCC(=O)NC4=O)C5=O)CC3)CC2)ccc1Nc1ncc(Cl)c(Nc2ccccc2P(C)(C)=O)n1` (stereo not drawn) [SIAIS353062, 4-(1-(4-((5-chloro-4-((2-(dimethylphosphono)phenyl)amino)pyrimidin-2-yl)amino)-3-methoxyphenyl)piperidin-4-yl)-N-(4-((2-(2,6-dioxopiperidin-3-yl)-1-oxoisoindolin-4-yl)thio)butyl)piperazine-1-carboxamide] reads 0.6 ± 0.4 nM.
